“And” between values parts separate entries of the source, which are not always exact repeats. Identical values can stand only once.
Test system: CD2F1 mice, P1798 lymphosarcoma sc, tumor weight T/C
Test: NCI In Vivo Anticancer Drug Screen. Data for tumor model P1798 Lymphosarcoma (subcutaneous) in CD2F1 (CDF1) mice
Conditions: endpoint: mean tumor weight, higher = larger tumour
Description: The antitumor activity of compounds was measured in mice bearing transplantable tumors. Survival or tumor size were measured and the results are expressed as the measurement made in the treated group (T) divided by the measurement made in the vehicle treated control group (C). The tumor model used in this assay is P1798 Lymphosarcoma (subcutaneous) in CD2F1 (CDF1) mice

[1] = dose: 12.5 mg/kg/injection, schedule: Q01DX005 (sc), vehicle: steriod suspending solution
[2] = dose: 12.5 mg/kg/injection, schedule: Q01DX010 (sc), vehicle: steriod suspending solution
[3] = dose: 25.0 mg/kg/injection, schedule: Q01DX005 (sc), vehicle: steriod suspending solution
[4] = dose: 50.0 mg/kg/injection, schedule: Q01DX005 (sc), vehicle: steriod suspending solution
[5] = dose: 50.0 mg/kg/injection, schedule: Q02DX010 (sc), vehicle: steriod suspending solution
[6] = dose: 50.0 mg/kg/injection, schedule: Q03DX004 (sc), vehicle: steriod suspending solution
[7] = dose: 100.0 mg/kg/injection, schedule: Q01DX005 (sc), vehicle: steriod suspending solution
[8] = dose: 100.0 mg/kg/injection, schedule: Q02DX010 (sc), vehicle: steriod suspending solution
[9] = dose: 100.0 mg/kg/injection, schedule: Q03DX004 (sc), vehicle: steriod suspending solution
[10] = dose: 25.0 mg/kg/injection, schedule: Q01DX010 (sc), vehicle: steriod suspending solution
[11] = dose: 10.0 mg/kg/injection, schedule: Q01DX010 (ip), vehicle: saline
[12] = dose: 20.0 mg/kg/injection, schedule: Q01DX010 (ip), vehicle: saline
[13] = dose: 40.0 mg/kg/injection, schedule: Q01DX010 (ip), vehicle: saline
[14] = dose: 80.0 mg/kg/injection, schedule: Q01DX010 (ip), vehicle: saline

For `C[C@]12C=CC(=O)C=C1CC[C@@H]1[C@@H]2[C@@H](O)C[C@@]2(C)[C@H]1CC[C@]2(O)C(=O)CO`, the T/C [1] was 41 % of control, the T/C [2] was 42 % of control and 46 % of control and the T/C [3] was 48 % of control. The T/C (dose: 25.0 mg/kg/injection, schedule: Q02DX010 (sc), vehicle: steriod suspending solution) was 100 % of control, the T/C (dose: 25.0 mg/kg/injection, schedule: Q03DX004 (sc), vehicle: steriod suspending solution) was 87 % of control and the T/C [4] was 22 % of control. The T/C [5] was 100 % of control, the T/C [6] was 92 % of control and the T/C [7] was 20 % of control. The T/C [8] was 96 % of control and the T/C [9] was 100 % of control.

With `COCCOC` the T/C (dose: 300.0 mg/kg/injection, schedule: Q01DX010 (ip), vehicle: saline) was 100 % of control, the T/C (dose: 450.0 mg/kg/injection, schedule: Q01DX010 (ip), vehicle: saline) was 62 % of control and the T/C (dose: 675.0 mg/kg/injection, schedule: Q01DX010 (ip), vehicle: saline) was 60 % of control.

With `CC(=O)[C@H]1CC[C@H]2[C@@H]3C[C@H](C)C4=CC(=O)CC[C@]4(C)[C@H]3C(=O)C[C@]12C` the T/C [1] was 89 % of control, the T/C [2] was 93 % of control and 95 % of control and the T/C [3] was 62 % of control. For the same molecule, the T/C [10] was 92 % of control and 96 % of control, the T/C [4] was 41 % of control and the T/C [5] was 96 % of control. For the same molecule, the T/C [6] was 43 % of control, the T/C (dose: 75.0 mg/kg/injection, schedule: Q01DX010 (sc), vehicle: steriod suspending solution) was 103 % of control and the T/C (dose: 75.0 mg/kg/injection, schedule: Q02DX010 (sc), vehicle: steriod suspending solution) was 89 % of control. For the same molecule, the T/C [7] was 32 % of control, the T/C [8] was 93 % of control and the T/C [9] was 46 % of control. For the same molecule, the T/C (dose: 200.0 mg/kg/injection, schedule: Q01DX010 (sc), vehicle: steriod suspending solution) was 22 % of control.

For `O=c1cn[nH]c(=O)[nH]1`, the T/C (dose: 62.5 mg/kg/injection, schedule: Q01DX010 (ip), vehicle: saline) was 111 % of control and 89 % of control, the T/C (dose: 125.0 mg/kg/injection, schedule: Q01DX010 (ip), vehicle: saline) was 97 % of control and the T/C (dose: 250.0 mg/kg/injection, schedule: Q01DX010 (ip), vehicle: saline) was 62 % of control and 80 % of control. The T/C (dose: 500.0 mg/kg/injection, schedule: Q01DX010 (ip), vehicle: saline) was 80 % of control.

`O=c1[nH]c(=O)n(C2CC(O)C(CO)O2)cc1F` (configuration not stated) was tested, and the T/C (dose: 5.0 mg/kg/injection, schedule: Q01DX010 (ip), vehicle: saline) was 73 % of control, the T/C [11] was 68 % of control and 84 % of control and the T/C [12] was 47 % of control and 55 % of control. For the same molecule, the T/C [13] was 15 % of control and 28 % of control and the T/C [14] was 1 % of control.

With `CC(=O)O[C@H]1CC[C@H]2[C@@H]3CC[C@H]4CCCC[C@]4(C)[C@H]3CC[C@]12C` the T/C [2] was 104 % of control and 121 % of control, the T/C [10] was 103 % of control and 85 % of control and the T/C (dose: 50.0 mg/kg/injection, schedule: Q01DX010 (sc), vehicle: steriod suspending solution) was 103 % of control.

In the case of `NCCCC(N)C(=O)NCCCCCCCCCCNC(=O)C(N)CCCN` (configuration not stated), the T/C (dose: 6.25 mg/kg/injection, schedule: Q01DX010 (ip), vehicle: saline) was 98 % of control, the T/C (dose: 12.5 mg/kg/injection, schedule: Q01DX010 (ip), vehicle: saline) was 86 % of control and the T/C (dose: 25.0 mg/kg/injection, schedule: Q01DX010 (ip), vehicle: saline) was 92 % of control. For the same molecule, the T/C (dose: 50.0 mg/kg/injection, schedule: Q01DX010 (ip), vehicle: saline) was 65 % of control.

In the case of `O=C(Nc1ccc(C2=NCCN2)cc1)c1ccc(C(=O)Nc2ccc(C3=NCCN3)cc2)cc1`, the T/C (dose: 16.0 mg/kg/injection, schedule: Q01DX010 (ip), vehicle: saline) was 76 % of control, the T/C (dose: 32.0 mg/kg/injection, schedule: Q01DX010 (ip), vehicle: saline) was 77 % of control and the T/C (dose: 64.0 mg/kg/injection, schedule: Q01DX010 (ip), vehicle: saline) was 73 % of control. For the same molecule, the T/C (dose: 128.0 mg/kg/injection, schedule: Q01DX010 (ip), vehicle: saline) was 47 % of control.

In the case of `OCC1OC(n2cnc3c(=S)nc[nH]c32)C(O)C1O` (configuration not stated), the T/C [11] was 65 % of control, the T/C [12] was 54 % of control and 57 % of control and the T/C [13] was 57 % of control and 61 % of control. The T/C [14] was 40 % of control and 60 % of control and the T/C (dose: 160.0 mg/kg/injection, schedule: Q01DX010 (ip), vehicle: saline) was 61 % of control.

Reference: PubChem BioAssay AID268 (DTP/NCI, 2004)
